Where two headings read alike, the source gives them in different places.
What was measured:
[1] = system: H929 multiple myeloma tumour line; assay: In vitro cytotoxicity, Microculture Tetrazolium Assay; format: cell-based; settings: H929 cells, 48 hours exposure, MTT, read-out: IC50 (μM) MTT H929
Procedure: The cytotoxicity studies were carried out on the H929 multiple myeloma tumour line.
The cells are distributed onto microplates and exposed to the test compounds for 48 hours.

Mcl-1 protein = Mcl-1 protein (UniProtKB primary accession number: Q07820) (Homo sapiens, UniProt Q07820); assay: Inhibition of Mcl-1 by fluorescence polarisation, Method 1; format: binding; settings: read-out: IC50 (M) Mcl-1 FP
Chain of Mcl-1 protein (Q07820 whole entry): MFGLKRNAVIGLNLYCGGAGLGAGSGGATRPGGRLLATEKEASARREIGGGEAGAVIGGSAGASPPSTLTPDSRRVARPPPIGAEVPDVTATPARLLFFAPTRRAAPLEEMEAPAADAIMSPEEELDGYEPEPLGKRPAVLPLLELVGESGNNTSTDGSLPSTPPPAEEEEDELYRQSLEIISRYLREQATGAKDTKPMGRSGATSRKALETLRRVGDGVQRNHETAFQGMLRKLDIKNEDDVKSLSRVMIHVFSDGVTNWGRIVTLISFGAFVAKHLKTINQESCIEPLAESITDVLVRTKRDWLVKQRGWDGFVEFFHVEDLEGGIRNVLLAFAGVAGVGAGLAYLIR
In short: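 An 11-point DMSO dilution of compound is mixed with buffer (10 mM HEPES, 150 mM NaCl, 0.05% Tween 20, pH 7.4) carrying 1 nM fluorescein-labelled ligand and 5 nM Mcl-1, final concentrations. Displacement is monitored by fluorescence polarisation.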

[2] = fluorescence polarisation, Method 1, or Method 2
[3] = fluorescence polarisation test, Method 2 values are underlined in the patent (underlining not visible here)

Row | SMILES | IC50 (Mcl-1 protein; [2]) [M] | IC50 (Mcl-1 protein; [3]) [M] | IC50 [1] [µM] | IC50 ([1]; Homo sapiens, NCI-H929, 48 h) [µM]
1 | Cc1c(-c2c(-c3ccco3)sc3ncnc(OC(Cc4ccccc4OC(C)c4ccncc4)C(=O)O)c23)ccc(OCCN2CCN(C)CC2)c1Cl [Example 208, (2R)-2-{[(5Sa)-5-{3-chloro-2-methyl-4-[2-(4-methylpiperazin-1-yl)ethoxy]phenyl}-6-(furan-2-yl)thieno[2,3-d]pyrimidin-4-yl]oxy}-3-{2-[(1R)-1-(pyridin-4-yl)ethoxy]phenyl}propanoic acid] |  | 5.5e-09 |  | 0.571
2 | Cc1c(-c2c(-c3ccc(F)cc3)sc3ncnc(OC(Cc4ccccc4OCc4cccc(-c5ccco5)n4)C(=O)O)c23)ccc(OCCN2CCN(C)CC2)c1Cl [Example 11, (2R)-2-{[(5Sa)-5-{3-chloro-2-methyl-4-[2-(4-methylpiperazin-1-yl)ethoxy]phenyl}-6-(4-fluorophenyl)thieno[2,3-d]pyrimidin-4-yl]oxy}-3-(2-{[6-(furan-2-yl)pyridin-2-yl]methoxy}phenyl)propanoic acid] |  | 4.4e-08 |  | 0.13
3 | Cc1c(-c2c(-c3ccco3)sc3ncnc(OC(Cc4ccccc4OCC(=O)Nc4ccccc4)C(=O)O)c23)ccc(OCCN2CCN(C)CC2)c1Cl [Example 219, (2R)-2-{[(5Sa)-5-{3-chloro-2-methyl-4-[2-(4-methylpiperazin-1-yl)ethoxy]phenyl}-6-(furan-2-yl)thieno[2,3-d]pyrimidin-4-yl]oxy}-3-{2-[2-oxo-2-(phenylamino)ethoxy]phenyl}propanoic acid] |  | 9.9e-09 |  | 0.191
4 | Cc1c(-c2c(-c3ccc(F)cc3)sc3ncnc(OC(Cc4ccccc4OCc4ccnc(Cc5ccccc5)n4)C(=O)O)c23)ccc(OCCN2CCN(C)CC2)c1Cl [Example 40, (2R)-3-{2-[(2-benzylpyrimidin-4-yl)methoxy]phenyl}-2-{[(5Sa)-5-{3-chloro-2-methyl-4-[2-(4-methylpiperazin-1-yl)ethoxy]phenyl}-6-(4-fluorophenyl)thieno[2,3-d]pyrimidin-4-yl]oxy}propanoic acid] |  | 5.6e-09 |  | 0.008
5 | Cc1c(-c2c(-c3ccc(F)cc3)sc3ncnc(OC(Cc4ccccc4OCc4cnnn4-c4ccccc4)C(=O)O)c23)ccc(OCCN2CCN(C)CC2)c1Cl [Example 94, (2R)-2-{[(5Sa)-5-{3-chloro-2-methyl-4-[2-(4-methylpiperazin-1-yl)ethoxy]phenyl}-6-(4-fluorophenyl)thieno[2,3-d]pyrimidin-4-yl]oxy}-3-{2-[(1-phenyl-1H-1,2,3-triazol-5-yl)methoxy]phenyl}propanoic acid] |  | 1.9e-09 |  | 0.085
6 | Cc1c(-c2c(-c3ccc(F)cc3)sc3ncnc(OC(Cc4ccccc4OCc4ccnn4CC4CC4)C(=O)O)c23)ccc(OCCN2CCN(C)CC2)c1Cl [Example 78, (2R)-2-{[(5Sa)-5-{3-chloro-2-methyl-4-[2-(4-methylpiperazin-1-yl)ethoxy]phenyl}-6-(4-fluorophenyl)thieno[2,3-d]pyrimidin-4-yl]oxy}-3-(2-{[1-(cyclopropylmethyl)-1H-pyrazol-5-yl]methoxy}phenyl)propanoic acid] |  | 6.6e-09 |  | 0.033
7 | Cc1c(-c2c(-c3ccc(F)cc3)sc3ncnc(OC(Cc4ccccc4OCc4cccc(N5CCOCC5)n4)C(=O)O)c23)ccc(OCCN2CCN(C)CC2)c1Cl [Example 12, (2R)-2-{[(5Sa)-5-{3-chloro-2-methyl-4-[2-(4-methylpiperazin-1-yl)ethoxy]phenyl}-6-(4-fluorophenyl)thieno[2,3-d]pyrimidin-4-yl]oxy}-3-(2-{[6-(morpholin-4-yl)pyridin-2-yl]methoxy}phenyl)propanoic acid] |  | 1.6e-08 |  | 0.076
8 | COc1cc(COc2ccccc2CC(Oc2ncnc3sc(-c4ccc(F)cc4)c(-c4ccc(OCCN5CCN(C)CC5)c(Cl)c4C)c23)C(=O)O)ccn1 [Example 21, (2R)-2-{[(5Sa)-5-{3-chloro-2-methyl-4-[2-(4-methylpiperazin-1-yl)ethoxy]phenyl}-6-(4-fluorophenyl)thieno[2,3-d]pyrimidin-4-yl]oxy}-3-{2-[(2-methoxypyridin-4-yl)methoxy]phenyl}propanoic acid] |  | 1.6e-08 |  | 0.162
9 | COCCn1nncc1COc1ccccc1CC(Oc1ncnc2sc(-c3ccc(F)cc3)c(-c3ccc(OCCN4CCN(C)CC4)c(Cl)c3C)c12)C(=O)O [Example 97, (2R)-2-{[(5Sa)-5-{3-chloro-2-methyl-4-[2-(4-methylpiperazin-1-yl)ethoxy]phenyl}-6-(4-fluorophenyl)thieno[2,3-d]pyrimidin-4-yl]oxy}-3-(2-{[1-(2-methoxyethyl)-1H-1,2,3-triazol-5-yl]methoxy}phenyl)propanoic acid] |  | 3.3e-09 |  | 0.075

Continued, in another order:

Row | IC50 (Mcl-1 protein; [2]) [M] | IC50 (Mcl-1 protein; [3]) [M] | SMILES | IC50 [1] [µM] | IC50 ([1]; Homo sapiens, NCI-H929, 48 h) [µM]
10 | 1.27e-09 |  | Cc1cc(-c2nccc(COc3ccccc3C[C@@H](Oc3ncnc4sc(-c5ccc(F)cc5)c(-c5ccc(OCCN6CCN(C)CC6)c(Cl)c5C)c34)C(=O)O)n2)cnc1C [Example 732, (2R)-2-{[(5Sa)-5-{3-chloro-2-methyl-4-[2-(4-methylpiperazin-1-yl)ethoxy]phenyl}-6-(4-fluorophenyl)thieno[2,3-d]pyrimidin-4-yl]oxy}-3-(2-{[2-(5,6-dimethylpyridin-3-yl)pyrimidin-4-yl]methoxy}phenyl)propanoic acid] | 0.013 | 
11 | 9.48e-10 |  | COCC#Cc1sc2ncnc(OC(Cc3ccccc3OCc3ccnc(-c4ccccc4OC)n3)C(=O)O)c2c1-c1ccc(OCCN2CCN(C)CC2)c(Cl)c1C [Example 784, (2R)-2-{[(5Sa)-5-{3-chloro-2-methyl-4-[2-(4-methylpiperazin-1-yl)ethoxy]phenyl}-6-(3-methoxyprop-1-yn-1-yl)thieno[2,3-d]pyrimidin-4-yl]oxy}-3-(2-{[2-(2-methoxyphenyl)pyrimidin-4-yl]methoxy}phenyl)propanoic acid] |  | 0.023
12 |  | 9.1e-09 | CCn1nccc1COc1ccccc1CC(Oc1ncnc2sc(-c3ccco3)c(-c3ccc(OCCN4CCN(C)CC4)c(Cl)c3C)c12)C(=O)O [Example 264, (2R)-2-{[(5Sa)-5-{3-chloro-2-methyl-4-[2-(4-methylpiperazin-1-yl)ethoxy]phenyl}-6-(furan-2-yl)thieno[2,3-d]pyrimidin-4-yl]oxy}-3-{2-[(1-ethyl-1H-pyrazol-5-yl)methoxy]phenyl}propanoic acid] |  | 0.034
13 | 8.4e-08 |  | CCc1sc2ncnc(OC(Cc3ccccc3)C(=O)O)c2c1-c1ccc(OCCCN(C)C)c(Cl)c1C [Example 400, (2R)-2-[((5Sa)-5-{3-chloro-4-[3-(dimethylamino)propoxy]-2-methylphenyl}-6-ethylthieno[2,3-d]pyrimidin-4-yl)oxy]-3-phenylpropanoic acid] |  | 14.4
14 | 3.4e-08 |  | COc1ccc(Cl)cc1CC(Oc1ncnc2sc(-c3ccc(Cl)o3)c(-c3ccc(OCCN4CCN(C)CC4)c(Cl)c3C)c12)C(=O)O [Example 714, (2R)-2-{[6-(5-chlorofuran-2-yl)-(5Sa)-5-{3-chloro-2-methyl-4-[2-(4-methylpiperazin-1-yl)ethoxy]phenyl}thieno[2,3-d]pyrimidin-4-yl]oxy}-3-(5-chloro-2-methoxyphenyl)propanoic acid] |  | 0.188
15 |  | 1.4e-08 | Cc1c(-c2c(-c3ccco3)sc3ncnc(OC(Cc4ccccc4OCCc4ccccn4)C(=O)O)c23)ccc(OCCN2CCN(C)CC2)c1Cl [Example 289, (2R)-2-{[(5Sa)-5-{3-chloro-2-methyl-4-[2-(4-methylpiperazin-1-yl)ethoxy]phenyl}-6-(furan-2-yl)thieno[2,3-d]pyrimidin-4-yl]oxy}-3-{2-[2-(pyridin-2-yl)ethoxy]phenyl}propanoic acid] |  | 0.18
16 |  | 2.1e-08 | Cc1c(-c2c(-c3ccco3)sc3ncnc(OC(Cc4cccc(F)c4)C(=O)O)c23)ccc(OCCN2CCN(C)CC2)c1Cl [Example 348, (2R)-2-{[(5Sa)-5-{3-chloro-2-methyl-4-[2-(4-methylpiperazin-1-yl)ethoxy]phenyl}-6-(furan-2-yl)thieno[2,3-d]pyrimidin-4-yl]oxy}-3-(3-fluorophenyl)propanoic acid] |  | 0.346
17 | 6.9e-09 |  | COCCOc1ccccc1CC(Oc1ncnc2sc(-c3ccco3)c(-c3ccc(OCCN4CCN(C(C)C)CC4)c(Cl)c3C)c12)C(=O)O [Example 671, (2R)-2-{[(5Sa)-5-(3-chloro-2-methyl-4-{2-[4-(propan-2-yl)piperazin-1-yl]ethoxy}phenyl)-6-(furan-2-yl)thieno[2,3-d]pyrimidin-4-yl]oxy}-3-[2-(2-methoxyethoxy)phenyl]propanoic acid] |  | 0.107
18 |  | 8.3e-09 | COCCN1CCN(CCOc2ccc(-c3c(-c4ccco4)sc4ncnc(OC(Cc5ccccc5OC)C(=O)O)c34)c(C)c2Cl)CC1 [Example 330, (2R)-2-{[(5Sa)-5-(3-chloro-4-{2-[4-(2-methoxyethyl)piperazin-1-yl]ethoxy}-2-methylphenyl)-6-(furan-2-yl)thieno[2,3-d]pyrimidin-4-yl]oxy}-3-(2-methoxyphenyl)propanoic acid] |  | 1.17
19 | 1.6e-08 |  | COc1ccccc1CC(Oc1ncnc2sc(-c3ccc(F)c(O)c3)c(-c3ccc(OCCN4CCN(C)CC4)c(Cl)c3C)c12)C(=O)O [Example 534, (2R)-2-{[(5Sa)-5-{3-chloro-2-methyl-4-[2-(4-methylpiperazin-1-yl)ethoxy]phenyl}-6-(4-fluoro-3-hydroxyphenyl)thieno[2,3-d]pyrimidin-4-yl]oxy}-3-(2-methoxyphenyl)propanoic acid] |  | 0.413
